Publication PMC10733463, “Berberine-microbiota interplay: orchestrating gut health through modulation of the gut microbiota and metabolic transformation into bioactive metabolites” (Frontiers in Pharmacology, 2023)
Read-outs that look alike come from different tables or passages of the source.

Tests used:
[1] = rats, 2021, cited from earlier work; for Total recovery in feces: ref Ma et al., 2013, Feng et al.
[2] = system: Blautia hydrogenotrophica (DSM 10507); conditions: DSM 10507, chicken, 10 µg/mL, pH 6
Description: (§1) Six strains were tested for their ability to convert berberine into berberine-demethylated metabolites. […] Strains were sub-cultured overnight in M2GSC medium pH 6. The next day, caecal content from a 3-week-old broiler chicken was sampled in anaerobic conditions and 1:1,000 diluted in M2GSC medium pH 6 containing 10 μg/mL berberine. Caecal mixtures were enriched with 1:100 diluted overnight cultures of single bacteria, or with M2GSC (control), and incubated in a 24-well plate, for 48 h. […] Samples were collected and processed as described before. Each bacterial strain was tested in triplicate at 37°C–40°C under anaerobic conditions.
(§2) The UPLC instrument consisted of an Acquity H-Class Quaternary Solvent Manager and an Acquity FTN Sample Manager (Waters, Berchem, Belgium). For chromatographic separation, an Acquity UPLC® HSS T3 column (1.8 µm, 100 mm × 2.1 mm i.d.) was used, protected by a precolumn of the same type (VanGuardTM, 5 mm × 2.1 mm i.d.), both from Waters. […] The column temperature was maintained at 25°C. The autosampler temperature was set at 10°C. The UPLC effluent was sent from 1.2 min to 9.5 min by use of a divert valve to a Xevo TQ-S® triple quadrupole mass spectrometer from Water, equipped with an ESI ion source operating in the positive ionization mode from. The UPLC-MS/MS analysis was run under control of MassLynx software (v4.1), which was used for subsequent data processing as well. For the injection of 1/5 diluted intestinal content samples (see section Preparation of intestinal content samples (ileum and caecum)), the divert valve was used in addition from 7.1 min to 8.4 min to deviate the high amount of berberine and associated IS berberine-d6 eluting in that time window from the UPLC column directly to the waste, rather than to the MS detector to avoid oversaturation of the instrument, influencing subsequent sample extract injections at well. Operating conditions for the ESI source used in the positive ionization mode were optimized by direct infusion of all individual components in combination with the mobile phase at 50% A/50% B delivered at a flow rate of 0.3 mL/min. The following tune parameters were used for detection of all components: capillary voltage, 3 kV, cone voltage, 10 V, source offset, 50 V, source temperature, 150°C, desolvation temperature, 500°C, desolvation gas flow, 800 L/h, cone gas flow, 150 L/h, collision gas flow, 0.2 mL/min, ion energy 1 and 2, 0.5, LM 1 and LM 2 resolution, 3, HM 1 and HM 2 resolution, 15. Components were detected in MS/MS mode using component specific MRM (Multiple Reaction Monitoring) transitions (Supplementary Table S1). Since a commercial standard of thalifendine was not available, MS/MS detection parameters and calibration of berberrubine were used for the detection and quantification of thalifendine, which is a reasonable approach, since both compounds are isomers. No commercial reference standards were available for phase II metabolites, therefore “calculated” MRM transitions were defined as follows: [M + -Gluc] > M+ for glucuronide forms and [M + -SO3] > M+ for sulfate forms, where the loss of glucuronic acid or sulfate corresponded to a mass shift of 176 Da or 80 Da respectively. Phase II metabolites were quantified relatively using the berberine calibration curve ([Wang et al., 2017a]; [Kwon et al., 2020]).

[3] = system: Blautia hansenii (DSM 20583); conditions: DSM 20583, chicken, 10 µg/mL, pH 6
Description: as §1, §2

[4] = system: Eubacterium limosum (LMG 28910); conditions: LMG 28910, chicken, 10 µg/mL, pH 6
Description: as §1, §2

B. coccoides (DSM 935) [5] = conditions: DSM 935, chicken, 10 µg/mL, pH 6
Description: as §1, §2

Blautia luti (DSM 14534) = conditions: DSM 14534, chicken, 10 µg/mL, pH 6
Description: as §1, §2

[6] = system: Anaerostipes butyraticus (35–7); conditions: 35-7, chicken, 10 µg/mL, pH 6
Description: as §1, §2

B. coccoides (DSM 935) [7] = conditions: Blautia coccoides, 10 µg/mL, pH 6
[8] = oral administration of berberine, ref Feng et al.

Log2(fold change) of metabolite response at 48 h, culture with bacteria over control (berberine-medium + microbiota) [2]	Log2(fold change) of metabolite response at 48 h, culture with bacteria over control (berberine-medium + microbiota) [3]	Log2(fold change) of metabolite response at 48 h, culture with bacteria over control (berberine-medium + microbiota) [4]	Log2(fold change) of metabolite response at 48 h, culture with bacteria over control (berberine-medium + microbiota) (B. coccoides (DSM 935) [5])	Log2(fold change) of metabolite response at 48 h, culture with bacteria over control (berberine-medium + microbiota) (Blautia luti (DSM 14534))	Log2(fold change) of metabolite response at 48 h, culture with bacteria over control (berberine-medium + microbiota) [6]	Log2(fold change) of metabolite response at 48 h, B. coccoides pure culture over berberine-medium (B. coccoides (DSM 935) [7])	Structure (SMILES)	Total recovery in feces ([1]; oral berberine 48.2 mg/kg) [%]	Total recovery in feces ([1]; oral berberine 200 mg/kg) [%]	Excretion in bile [1, 8] [%]	Excretion in feces [1, 8] [%]	Excretion in urine [1, 8] [%]
–	–	–	–	–	–	–	COc1ccc2cc3[n+](cc2c1OC)CCc1cc2c(cc1-3)OCO2 [Berberine, Berberine chloride]	8.4	19.05	–	–	–
-0.10	-0.15	-0.40	-1.64	-1.71	0.03	1.96	COc1ccc2cc3[n+](cc2c1O)CCc1cc2c(cc1-3)OCO2 [Berberrubine, berberrubine chloride]	18.6	1.14	2.6	18.6	1.2
0.03	-0.06	0.11	-0.23	-0.36	-0.05	-2.05	COc1cc2c(cc1O)CC[n+]1cc3c(OC)c(OC)ccc3cc1-2 [Jatrorrhizine, Jatrorrhizine chloride]	–	–	–	–	–
